Measured values from US6852702B2, “9a-N-[N′-(phenylsulfonyl)carbamoyl] derivatives of 9-deoxo-9-dihydro-9a-aza-9a-homoerythromycin A and of 5-O-desosaminyl-9-deoxo-9-dihydro-9a-aza-9a-homoerythronolide A” (Pliva D.D., priority 2002, dated 2005).
In brackets after ≈: the same amount, converted by molar mass.

The compounds below were run on Streptococcus pneumoniae ATCC 6305 (assay: MIC by dilution method on microplates (NCCLS M7-A2)). Conditions: in vitro.
Assay type: cell-based
Method: Minimal inhibitory concentrations (MIC, in μg/ml) are determined by dilution method on microplates according to recommendations of National Committee for Clinical Laboratory Standards (NCCLS, M7-A2). So e.g. the minimal inhibitory concentration on Streptococcus pneumoniae ATCC 6305 for the compounds from Examples 1 and 4 is 2 μg/ml and for compounds from Examples 2 and 3 is 1 μg/ml. Thus, they can be used for disinfection of rooms, surgical instruments and people as well as therapeutic agents in the treatment of infective diseases in animals, specially mammals, or humans that are caused by a wide spectrum of gram-positive bacteria, microorganisms or generally pathogenic microorganisms which are sensitive to the compounds of the formula 1. For this purpose the above compounds or their pharmaceutically acceptable salts with acids may be used orally in usual doses from 0.2 mg/kg body weight per day to about 250 mg/kg/day, most frequently from 5-50 mg/kg/day, or parenterally in the form of subcutaneous or intramuscular injections.

Going from `CCC1OC(=O)C(C)C(OC2CC(C)(OC)C(O)C(C)O2)C(C)C(OC2OC(C)CC(N(C)C)C2O)C(C)(O)CC(C)CN(C(=O)NS(=O)(=O)c2ccc(C)cc2)C(C)C(O)C1(C)O` (stereo not shown) [Example 2, 9-Deoxo-9-dihydro-9a-N-[N′-(p-toluenesulfonyl)carbamoyl]-9a-aza-9a-homoerythromycin A] to `CCC1OC(=O)C(C)C(OC2CC(C)(OC)C(O)C(C)O2)C(C)C(OC2OC(C)CC(N(C)C)C2O)C(C)(O)CC(C)CN(C(=O)NS(=O)(=O)c2ccc(Cl)cc2)C(C)C(O)C1(C)O` (stereo not shown) [Example 1, 9-Deoxo-9-dihydro-9a-N-[N′-(4-chlorobenzenesufonyl)carbamoyl]-9a-aza-9a-homoerythromycin A], the “minimal inhibitory concentration (MIC)” value rises from 1 µg/mL (≈ 1.07 µM) to 2 µg/mL (≈ 2.1 µM) (2-fold).

Going from `CCC1OC(=O)C(C)C(OC2CC(C)(OC)C(O)C(C)O2)C(C)C(OC2OC(C)CC(N(C)C)C2O)C(C)(O)CC(C)CN(C(=O)NS(=O)(=O)c2ccccc2C)C(C)C(O)C1(C)O` (stereo not shown) [Example 3, 9-Deoxo-9-dihydro-9a-N-[N′-(o-toluenesulfonyl)carbamoyl]-9a-aza-9a-homoerythromycin A] to `CCC1OC(=O)C(C)C(OC2CC(C)(OC)C(O)C(C)O2)C(C)C(OC2OC(C)CC(N(C)C)C2O)C(C)(O)CC(C)CN(C(=O)NS(=O)(=O)c2ccccc2)C(C)C(O)C1(C)O` (stereo not shown) [Example 4, 9-Deoxo-9-dihydro-9a-N-[N′-(benzenesulfonyl)carbamoyl]-9a-aza-9a-homoerythromycin A], the “minimal inhibitory concentration (MIC)” value rises from 1 µg/mL (≈ 1.07 µM) to 2 µg/mL (≈ 2.18 µM) (2-fold).
